Patent US11111251B2, “Positive allosteric modulators of the muscarinic acetylcholine receptor M1” (Vanderbilt University, priority 2016, dated 2021)

Target: T1, human mAChR M1 (Homo sapiens, UniProt P11229)
T1 sequence (P11229 1-460): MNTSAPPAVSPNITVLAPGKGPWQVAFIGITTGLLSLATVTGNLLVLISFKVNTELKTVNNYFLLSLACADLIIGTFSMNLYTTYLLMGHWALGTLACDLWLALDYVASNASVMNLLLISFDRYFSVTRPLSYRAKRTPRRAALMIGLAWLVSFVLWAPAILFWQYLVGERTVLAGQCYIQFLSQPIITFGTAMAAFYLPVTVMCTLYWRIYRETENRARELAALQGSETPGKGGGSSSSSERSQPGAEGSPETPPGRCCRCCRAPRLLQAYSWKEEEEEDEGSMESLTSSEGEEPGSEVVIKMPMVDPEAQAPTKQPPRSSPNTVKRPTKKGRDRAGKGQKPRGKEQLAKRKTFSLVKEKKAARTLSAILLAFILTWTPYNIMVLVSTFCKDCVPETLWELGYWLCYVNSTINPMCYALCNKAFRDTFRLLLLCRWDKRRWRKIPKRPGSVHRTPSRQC
Assay: mAChR M1 cell-based functional assay: calcium mobilization, positive allosteric modulator mode (increase in EC20 acetylcholine response)
Conditions: Table 2, human M1; for EC50: read-out: Human M1 EC50; for Emax: read-out: Human M1 Emax (%)
Excerpt: a. Cell Lines Expressing Muscarinic Acetylcholine Receptors
Chinese hamster ovary (CHO-K1) cells stably expressing rat (r)M1 were purchased from the American Type Culture Collection and cultured according to their indicated protocol. CHO cells stably expressing human (h)M2, hM3, and hM5 were described previously (Levey, et al., 1991); hMi and hM4 cDNAs were purchased from Missouri S&T cDNA Resource; rM4 cDNA was provided by T. I. Bonner (National Institutes of Health, Bethesda, Md.). rM2 and rM3 were cloned from a rat brain cDNA library and sequence verified. hMi, rM2, rM3, hM4, and rM4 cDNAs were used to stably transfect CHO-K1 cells purchased from the American Type Culture Collection using Lipofectamine2000. To make stable rM2, hM2, rM3, hM4, and rM4 cell lines for use in calcium mobilization assays, these cells also were stably transfected with a chimeric G-protein (Gqi5) (provided by B. R. Conklin, University of California, San Francisco) using Lipofectamine 2000. rMi, hMi, rM3, hM3, rM5, and hM5 cells were grown in Ham's F-12 medium containing 10% heat-inactivated fetal bovine serum (FBS), 20 mM HEPES, and 50 μg/mL G418 sulfate. rM2-Gqi5, hM2-Gqi5, and hM4-Gqi5 cells were grown in the same medium also containing 500 μg/mL Hygromycin B. Stable rM4-Gqi5 cells were grown in DMEM containing 10% heat-inactivated FBS, 20 mM HEPES, 400 μg/mL G418 sulfate, and 500 μg/mL Hygromycin B.
b. Cell-Based Functional Assay of Muscarinic Acetylcholine Receptor Activity
For high throughput measurement of agonist-evoked increases in intracellular calcium, CHO-K1 cells stably expressing muscarinic receptors were plated in growth medium lacking G418 and hygromycin at 15,000 cells/20 μL/well in Greiner 384-well black-walled, tissue culture (TC)-treated, clear-bottom plates (VWR). Cells were incubated overnight at 37° C. and 5% CO2. The next day, cells were washed using an ELX 405 (BioTek) with four washes (80 μL) of assay buffer then aspirated to 20 μL. Next, 20 μL of 16 μM Fluo-4/acetoxymethyl ester (Invitrogen, Carlsbad, Calif.) prepared as a 2.3 mM stock in DMSO and mixed in a 1:1 ratio with 10% (w/v) Pluronic F-127 and diluted in assay buffer was added to the wells and the cell plates were incubated for 50 min at 37° C. and 5% CO2. Dye was removed by washing with the ELX 405 (four […], washes of assay buffer) then aspirated to 20 μL. Compound master plates were formatted in an 11 point CRC format (1:3 dilutions) in 100% DMSO with a starting concentration of 10 mM using the BRAVO liquid handler (Agilent). Test compound CRCs were then transferred to daughter plates (240 nL) using the Echo acoustic plate reformatter (Labcyte, Sunnyvale, Calif.) and then diluted into assay buffer (40 μL) to a 2× stock using a Thermo Fisher Combi (Thermo Fisher Scientific, Waltham, Mass.).
Calcium flux was measured using the Functional Drug Screening System (FDSS) 6000 (Hamamatsu Corporation, Tokyo, Japan) as an increase in the fluorescent static ratio. Compounds were applied to cells (20 μL, 2×) using the automated system of the FDSS 6000 at 4 s into the 300 s protocol and the data were collected at 1 Hz. At 144 s into the 300s protocol, 10 μL of an EC20 concentration of the muscarinic receptor agonist acetylcholine was added (5×), followed by the addition of 12 μL an EC80 concentration of acetylcholine at the 230 s time point (5×). Agonist activity was analyzed as a concentration-dependent increase in calcium mobilization upon compound addition. Positive allosteric modulator activity was analyzed as a concentration-dependent increase in the EC20 acetylcholine response. Antagonist activity was analyzed as a concentration-dependent decrease in the EC80 acetylcholine response. Concentration-response curves were generated using a four-parameter logistical equation in XLfit curve fitting software (IDBS, Bridgewater, N.J.) for Excel (Microsoft, Redmond, Wash.) or Prism (GraphPad Software, Inc., San Diego, Calif.).

Compound	EC50	Emax
Cn1cc(-c2cc(F)c(Cc3cc(C(=O)N[C@H]4CCCCC[C@@H]4O)nc4ccsc34)c(F)c2)cn1 [Compound 61, 7-[[2,6-difluoro-4-(1-methylpyrazol-4-yl)phenyl]methyl]-N-[(1S,2S)-2-hydroxycycloheptyl]thieno[3,2-b]pyridine-5-carboxamide]	> 10 µM	64.8%
Cn1cc(-c2ccc(Cc3cc(C(=O)N[C@H]4COCC[C@@H]4O)nc4ccsc34)cn2)cn1 [Compound 62, N-[(3S,4S)-4-hydroxytetrahydropyran-3-yl]-7-[[6-(1-methylpyrazol-4-yl)-3-pyridyl]methyl]thieno[3,2-b]pyridine-5-carboxamide]	> 10 µM	41.2%
Cc1ccc(Cc2cc(C(=O)NC3C(=O)Nc4ccccc43)nc3ccsc23)cn1 (centres unmarked) [Compound 68, 7-[(6-methyl-3-pyridyl)methyl]-N-(2-oxoindolin-3-yl)thieno[3,2-b]pyridine-5-carboxamide]	9.7 µM	22.8%
Cc1ccc(Cc2cc(C(=O)Nc3c[nH]cn3)nc3ccsc23)cn1 [Compound 70, N-(1H-imidazol-4-yl)-7-[(6-methyl-3-pyridyl)methyl]thieno[3,2-b]pyridine-5-carboxamide]	> 10 µM	62.4%
O=C(NC1CCCCC1)c1cc(Cc2ccc(-n3cccn3)cc2)c2sccc2n1 [Compound 72, N-cyclohexyl-7-[(4-pyrazol-1-ylphenyl)methyl]thieno[3,2-b]pyridine-5-carboxamide]	> 10 µM	84.5%

Stronger by EC50, values ahead:

EC50	Emax	Compound
3.99 µM	87%	Cc1ccc(Cc2cc(C(=O)NC34CC5CC(CC(O)(C5)C3)C4)nc3ccsc23)cn1 [Compound 63, N-(3-hydroxy-1-adamantyl)-7-[(6-methyl-3-pyridyl)methyl]thieno[3,2-b]pyridine-5-carboxamide]
0.962 µM	70.7%	Cc1ccc(Cc2cc(C(=O)NC3C4CC5C[C@H]3CC(O)(C5)C4)nc3ccsc23)cn1 (stereo partly drawn) [Compound 64, N-[(1S)-5-hydroxy-2-adamantyl]-7-[(6-methyl-3-pyridyl)methyl]thieno[3,2-b]pyridine-5-carboxamide]
1.72 µM	37.3%	Cc1ccc(Cc2cc(C(=O)Nc3n[nH]c4ccccc34)nc3ccsc23)cn1 [Compound 65, N-(1H-indazol-3-yl)-7-[(6-methyl-3-pyridyl)methyl]thieno[3,2-b]pyridine-5-carboxamide]
7.41 µM	93%	Cc1ccc(Cc2cc(C(=O)NC3CCCNC3=O)nc3ccsc23)cn1 (centres unmarked) [Compound 66, 7-[(6-methyl-3-pyridyl)methyl]-N-(2-oxo-3-piperidyl)thieno[3,2-b]pyridine-5-carboxamide]
2.78 µM	92.7%	Cc1ccc(Cc2cc(C(=O)NC3CCCCNC3=O)nc3ccsc23)cn1 (centres unmarked) [Compound 67, 7-[(6-methyl-3-pyridyl)methyl]-N-(2-oxoazepan-3-yl)thieno[3,2-b]pyridine-5-carboxamide]
6.82 µM	80.3%	Cc1ccc(Cc2cc(C(=O)Nc3cc(C)n[nH]3)nc3ccsc23)cn1 [Compound 69, N-(3-methyl-1H-pyrazol-5-yl)-7-[(6-methyl-3-pyridyl)methyl]thieno[3,2-b]pyridine-5-carboxamide]
0.0803 µM	92.7%	O=C(N[C@@H]1CCC[C@H]1O)c1cc(Cc2ccc(-n3cccn3)cc2)c2sccc2n1 [Compound 71, N-[(1R,2R)-2-hydroxycyclopentyl]-7-[(4-pyrazol-1-ylphenyl)methyl]thieno[3,2-b]pyridine-5-carboxamide]
0.0501 µM	87.9%	O=C(N[C@@H]1CCCC[C@H]1O)c1cc(Cc2ccc(-n3cccn3)cc2)c2sccc2n1 [Compound 73, N-[(1R,2R)-2-hydroxycyclohexyl]-7-[(4-pyrazol-1-ylphenyl)methyl]thieno[3,2-b]pyridine-5-carboxamide]
